US20250108032A1, “METHODS OF TREATING TYPE 1 DIABETES AND KIDNEY DISEASE” (LEXICON PHARMACEUTICALS, INC., priority 2023, published 2025)

Test system: adult patients with type 1 diabetes mellitus (overall and CKD cohorts)
Assay: Pooled inTandem1 and inTandem2 double-blind clinical studies, sotagliflozin adjunct to optimized insulin
Type: in vivo, human
Settings: for No Weight Gain at Week 52, HbA1c <7.0%: Absolute difference in % / No Weight Gain at Week 52, reduction in HbA1c ≥0.5%: Absolute difference in % / No Weight Gain at Week 52: % with absolute reduction in HbA1c ≥0.5% / No Weight Gain at Week 52: Percentage HbA1c <7.0% / Weight, LS Mean (SE) kg: Percent Change (%) from Baseline at Week 24 / Weight, LS Mean (SE) kg: Percent Change (%) from Baseline at Week 52 / Weight, LS Mean (SE): Treatment Comparison vs. PBO, Week 24 / Weight, LS Mean (SE): Treatment Comparison vs. PBO, Week 52 / Any TEAE, n (%) / Diarrhea, n (%) / Genital mycotic infection, n (%) / HbA1c change from Baseline, Week 52 Treatment Comparison LS Mean (SE), %: overall cohort; for HbA1c change from Baseline, Week 24 Treatment Comparison LS Mean (SE), % / HbA1c change from Baseline, Week 52 Treatment Comparison LS Mean (SE), %: vs placebo
Description: The efficacy of sotagliflozin as adjunct therapy in adult patients with type 1 diabetes mellitus who have inadequate glycemic control with insulin therapy was evaluated in two multicenter, double-blind clinical studies named “in Tandem1” and “in Tandem2”. Patients were randomized into three treatment groups: those treated with sotagliflozin 200 mg/day, those treated with sotagliflozin 400 mg/day; and those treated with placebo.
Details of the in Tandem1 study have been reported. See, e.g., Buse, J. B., et al., “Sotagliflozin in Combination With Optimized Insulin Therapy in Adults With Type 1 Diabetes: The North American in Tandem1 Study” Diabetes Care 2018; 41: 1970-1980. Details of the in Tandem2 study have also been reported. See, e.g., Danne. T., et al., “HbA and Hypoglycemia 1c Reductions at 24 and 52 Weeks With Sotagliflozin in Combination With Insulin in Adults With Type 1 Diabetes: The European in Tandem2 Study” Diabetes Care 2018; 41: 1981-1990. Both studies included men and nonpregnant women aged≥18 years with T1D using either multiple daily injections (MDI) or subcutaneous insulin infusion (SCII) for insulin delivery and whose HbA1C was 7.0-11.0% at screening. Patients with β-hydroxybutyrate (BHB) levels>0.6 mmol/L at screening were excluded.
In both studies, insulin therapy was optimized for six weeks prior to randomization, and optimized insulin continued until the study conclusion at week 52. After a two-week placebo run-in, patients were randomly assigned to double-blind treatment with sotagliflozin 200 or 400 mg or placebo for 52 weeks. Insulin optimization, which refers to the adjustment of insulin to meet standard-of-care glycemic targets, starting six weeks prior to randomization and continued for the entire study. An independent insulin dose monitoring committee (IDMC) assessed standard-of-care adherence and provided feedback to the principal investigator if deviations from standard of care were observed prior to week 24. HbA1c was masked to study staff during this period. Between week 24 and 52, insulin optimization continued without input from the IDMC, and HbA1c values were unmasked. Safety was monitored for 30 days after the last dose of study medication.
The primary endpoint of both studies was the change from baseline to week 24 in glycated hemoglobin A1C of either dose of sotagliflozin (400 mg or 200 mg) treatment group compared to placebo. Other endpoints included the change from baseline of sotagliflozin versus placebo in: the proportion of patients with A1C<7.0% and no episode of severe hypoglycemia and no episode of DKA; body weight, bolus insulin dose, fasting plasma glucose (FPG), diabetes treatment satisfaction questionnaire status (DTSQs) score; and Diabetes Distress Screening Scale (DDS2) questionnaire score.
Efficacy analyses were based on the mITT (modified Intent-to-Treat) population. Primary efficacy analyses were conducted based on data collected during the Core Treatment Period (Baseline through and including the week 24 visit assessments). As shown below in Table 2, sotagliflozin achieved its primary endpoint by leading to statistically significant lower A1C levels for both doses when compared to placebo in the pooled in Tandem1/in Tandem2 study results after the core treatment and long-term extension periods.

[1] = 200 mg/day vs placebo, CKD Cohort, 52 weeks
[2] = 200 mg/day vs placebo, Overall Cohort, 52 weeks
[3] = 200 mg/day, CKD Cohort N = 85, 52 weeks
[4] = 200 mg/day, overall cohort N = 524, positively adjudicated, through 52 Weeks
[5] = 400 mg/day vs placebo, CKD Cohort, 52 weeks
[6] = 400 mg/day vs placebo, Overall Cohort, 52 weeks
[7] = 400 mg/day, CKD Cohort N = 76, 52 weeks
[8] = 400 mg/day, overall cohort N = 525, positively adjudicated, through 52 Weeks

## CCOc1ccc(Cc2cc([C@@H]3O[C@H](SC)[C@@H](O)[C@H](O)[C@H]3O)ccc2Cl)cc1 [sotagliflozin, (2S,3R,4R,5S,6R)-2-(4-chloro-3-(4-ethoxybenzyl)phenyl)-6-(methylthio)tetrahydro-2H-pyran-3,4,5-triol]
200 mg/day vs PBO
  No Weight Gain at Week 52, HbA1c <7.0%: Absolute difference in %: 12.6%
  No Weight Gain at Week 52, reduction in HbA1c ≥0.5%: Absolute difference in %: 14.9%
[1]
  DKA, HR (95% CI): 3.2 (0.4, 29.0)
  Severe hypoglycemia, HR (95% CI): 0.34 (0.13, 0.91)
[2]
  DKA, HR (95% CI): 15.0 (2.0, 113.3)
  Severe hypoglycemia, HR (95% CI): 0.76 (0.47, 1.22)
[3]
  DKA, n (%): 4 (4.7) n (%)
  Severe hypoglycemia, n (%): 6 (7.1) n (%)
200 mg/day
  No Weight Gain at Week 52: % with absolute reduction in HbA1c ≥0.5%: 23.7%
  No Weight Gain at Week 52: Percentage HbA1c <7.0%: 21.8%
  Weight, LS Mean (SE) kg: Percent Change (%) from Baseline at Week 24: −1.70 (0.137) %
  Weight, LS Mean (SE) kg: Percent Change (%) from Baseline at Week 52: −2.31 (0.208) %
  Weight, LS Mean (SE): Treatment Comparison vs. PBO, Week 24: −2.17 (0.188) %
  Weight, LS Mean (SE): Treatment Comparison vs. PBO, Week 52: −3.21 (0.291) %
  HbA1c change from Baseline, Week 52 Treatment Comparison LS Mean (SE), %: −0.23%
[4]
  DKA, n (%): 15 (2.9) n (%)
  Severe hypoglycemia, n (%): 30 (5.7) n (%)
200 mg/day, overall cohort n = 524
  HbA1c change from Baseline, Week 24 Treatment Comparison LS Mean (SE), %: −0.36%
200 mg/day, through 52 Weeks
  Any TEAE, n (%): 393 (75.0) n (%)
  Diarrhea, n (%): 34 (6.5) n (%)
  Genital mycotic infection, n (%): 48 (9.2) n (%)
400 mg/day vs PBO
  No Weight Gain at Week 52, HbA1c <7.0%: Absolute difference in %: 17.0%
  No Weight Gain at Week 52, reduction in HbA1c ≥0.5%: Absolute difference in %: 20.0%
[5]
  DKA, HR (95% CI): 1.9 (0.2, 20.8)
  Severe hypoglycemia, HR (95% CI): 0.2 (0.06, 0.70)
[6]
  DKA, HR (95% CI): 20.3 (2.7, 151.2)
  Severe hypoglycemia, HR (95% CI): 0.58 (0.35, 0.97)
[7]
  DKA, n (%): 2 (2.6) n (%)
  Severe hypoglycemia, n (%): 3 (3.9) n (%)
400 mg/day
  No Weight Gain at Week 52: % with absolute reduction in HbA1c ≥0.5%: 28.8%
  No Weight Gain at Week 52: Percentage HbA1c <7.0%: 26.1%
  Weight, LS Mean (SE) kg: Percent Change (%) from Baseline at Week 24: −2.55 (0.137) %
  Weight, LS Mean (SE) kg: Percent Change (%) from Baseline at Week 52: −3.33 (0.209) %
  Weight, LS Mean (SE): Treatment Comparison vs. PBO, Week 24: −3.02 (0.188) %
  Weight, LS Mean (SE): Treatment Comparison vs. PBO, Week 52: −4.24 (0.291) %
  HbA1c change from Baseline, Week 52 Treatment Comparison LS Mean (SE), %: −0.32%
[8]
  DKA, n (%): 20 (3.8) n (%)
  Severe hypoglycemia, n (%): 23 (4.4) n (%)
400 mg/day, overall cohort n = 525
  HbA1c change from Baseline, Week 24 Treatment Comparison LS Mean (SE), %: −0.38%
400 mg/day, through 52 Weeks
  Any TEAE, n (%): 390 (74.3) n (%)
  Diarrhea, n (%): 46 (8.8) n (%)
  Genital mycotic infection, n (%): 63 (12.0) n (%)
Patients with BMI≥27 kg/m^2 compared to the lower BMI subgroup, Week 24
  efficacy (A1C, body weight, DTSQ change from baseline) by BMI subgroup: systematically better
Sotagliflozin compared to placebo in the CKD cohort
  relative risk of severe hypoglycemia: lower
Sotagliflozin relative to placebo in the CKD cohort
  relative risk of DKA: not significantly higher
To a similar extent as the overall cohort
  A1C and BW in the CKD subgroup: significantly reduced
